Results on eight molecules are retold here after patent publication US20160362463A1, “Pharmaceutical composition inhibiting interaction between MZF-1 and Elk-1” (China Medical University, priority 2015, published 2016).

Read-outs that look alike come from different tables or passages of the source. No end group written: not given here.

One assay concerns MDA-MB-231 cells. In words: MTT cell viability with anti-cancer drugs, MDA-MB-231 cells. The assay is classed as cell-based, human. The conditions noted are these: read-out: 50% inhibitory concentration (IC50), cell viability. Here is the method:
The level of multidrug resistance protein permeability glycoprotein (P-gp) was determined by upper panel. Cell growth was determined using the MTT assay 2 days after treatment (lower panel).
Cell proliferation was analyzed using the yellow tetrazolium (MTT) assay. Cells were seeded in 24-well plates at 1×10^4 cells/well and cultured in DMEM containing 10% FCS at 37° C. overnight. Cells were treated with or without various plasmids and incubated for 24 or 48 h. After incubation, the medium was replaced with fresh medium, and the cells were incubated with 1 mg/ml MTT for 3 h before being dissolved in 1 ml of DMSO for 30 min. The optical density at 570 nm was measured using a spectrophotometer.
To determine if MZF-160-72 peptide-mediated decrease in P-gp expression sensitizes breast cancer cells to chemotherapeutic agents, MZF-160-72-expressing MDA-MB-231 stable cells were treated with acriflavine and cisplatin (commonly used to treat breast cancer-insert) and their cell viability measured.

For a further assay, the system named is Hs578T cells. In words: MTT cell viability with anti-cancer drugs, Hs578T cells. Type of assay: cell-based, human.
The target of assay [1] is T1, Elk-1 and MZF-1 DNA-binding activity at the PKCα promoter (Homo sapiens, UniProt P19419+P28698).
T1 construct: Primers and restriction enzyme (R.E.) sites for the full-length and truncated MZF-1, Elk-1; expressed in transfected cells; host or cells: HEK-293 (nuclear extracts)
T1 sequence (P28698 1-485 isoform P28698-2, one chain of several): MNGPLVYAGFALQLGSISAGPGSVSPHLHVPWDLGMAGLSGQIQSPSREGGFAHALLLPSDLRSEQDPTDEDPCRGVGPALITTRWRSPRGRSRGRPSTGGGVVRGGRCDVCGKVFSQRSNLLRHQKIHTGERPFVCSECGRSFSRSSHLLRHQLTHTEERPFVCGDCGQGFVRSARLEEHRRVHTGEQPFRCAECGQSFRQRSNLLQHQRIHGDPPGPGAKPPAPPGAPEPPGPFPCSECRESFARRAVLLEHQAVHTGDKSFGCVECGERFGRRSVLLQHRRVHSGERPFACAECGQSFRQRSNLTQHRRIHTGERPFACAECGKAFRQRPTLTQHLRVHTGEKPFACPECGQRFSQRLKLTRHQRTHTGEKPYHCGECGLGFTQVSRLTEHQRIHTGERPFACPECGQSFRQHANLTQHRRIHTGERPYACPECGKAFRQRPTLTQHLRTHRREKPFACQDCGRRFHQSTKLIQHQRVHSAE
In words: EMSA of Elk-1 and MZF-1 binding to PKCα promoter probe, nuclear extracts of transfected HEK-293 cells. The assay is classed as biochemical. The conditions noted are these: biotin-labeled WT PKCα promoter probe. How it is done: The biotin-labeled WT oligonucleotide probes were incubated with the indicated concentration of nuclear extracts of the different-treated HEK-293 cells, which were transfected with empty vector, Elk-1, MZF-1, MZF-160-72 or mutant MZF-160-72 and the reactions were resolved on a nondenaturing polyacrylamide gel. DNA-protein complexes are indicated by the black arrow-head.
The biotin-labeled wild-type oligonucleotide probes were incubated with the indicated concentration of nuclear extracts of the different-treated HEK-293 cells, which were transfected with empty vector, Elk-1, MZF-1, Elk-1145-157 or mutant Elk-1145-157.
EMSA analysis was performed using a LightShift™ chemiluminescent EMSA kit (Pierce). 15 μg of nuclear extract was used for each EMSA analysis. […] The membrane was immediately cross-linked at 120 mJ/cm^2 using an UV transilluminator and then analyzed via chemiluminescence according to the manufacturer's instructions.
A general note: A gel shift assay detects complexes by their altered migration in electrophoresis.

A further assay deals with T2, MZF-1/Elk-1 interaction (Homo sapiens, UniProt P19419+P28698).
T2 construct: FLAG-Elk-1; 1-428; MZF-1-c-Myc; 1-485; His (from the myc-His vector) (C); expressed in transfected cells; host or cells: HEK-293 (lysates)
T2 sequence (P28698 1-485 isoform P28698-2, one chain of several): as above
Put plainly: Co-immunoprecipitation of MZF-1 and Elk-1 in HEK-293 lysates with added TAT-fused peptides. The conditions noted are these: 50, 100 and 150 nmol peptide added to lysates, overnight at 4° C. The assay is classed as binding. How it is done:
HEK-293 cells were transfected with empty vector, FLAG-Elk-1, MZF-1-c-Myc, FLAG-MZF-1 or Elk-1-cMyc construct. ‘+’ indicates the presence of each item and ‘-’ indicates their absence. Different concentrations (50, 100 and 150 nmol) of TAT-fused peptides (normal or mutant) were then added to the lysates and incubated overnight at 4° C. and then subjected to immunoprecipitation with anti-c-Myc antibody, followed by immunoblotting against FLAG and c-Myc. Lysates of HEK-293 cells transfected with FLAG-Elk-1 or FLAG-MZF-1 vector indicated as a “Input”.

Assay [2] concerns Hs578T and MDA-MB-231 cells. Put plainly: Cell migration assay after treatment with TAT-fused peptides. The assay is classed as cell-based, human. The conditions noted are these: 3 days after addition of the peptides. Here is the method:
The cell migration assay was performed 3 days after the addition of the peptides to the cells.
(§1) The TAT-fused peptides were designed such that the TAT moiety corresponds to amino acid residues 48-57 of the HIV TAT protein, the MZF-160-72 moiety corresponds to residue 60-72 of the human MZF-1 protein and the Elk-1145-157 moiety corresponds to residues 145-157 of the human Elk-1 protein. The TAT and MZF-1/Elk-1 moieties were linked by three glycine linker residues. The TAT-fused peptide MZF-1 normal fragment (60-72; […] as SEQ ID NO: 57), MZF-1 mutant fragment (60-72; […] as SEQ ID NO: 58), Elk-1 normal fragment (145-157; […] as SEQ ID NO: 59), and Elk-1 mutant fragment (145-157; […] as SEQ ID NO: 60) were synthesized by MDBio, Inc. (Taipei, Taiwan). For transduction of the TAT fusion proteins cells were cultured to 50-60% confluence. The culture medium was removed and replaced with fresh, serum-free medium, followed by the addition of the TAT fusion proteins at the indicated concentrations. Three days post-treatment the cells were used for migration assays and western blotting.
The migration assay was performed using a 48-well Boyden chamber (Neuro Probe) plated with 8-μm pore size polycarbonate membrane filters (Neuro Probe). […] The migratory phenotypes were determined by counting the cells that migrated to the lower side of the filter through microscopy at 200× magnification.

Assay [3] concerns Hs578T and MDA-MB-231 cells. Put plainly: Immunoblotting of protein levels in TAT-fused peptide-treated cells. The conditions noted are these: three days post-treatment. Type of assay: cell-based, human.
Description: as §1

The target of a further assay is T3, Elk-1 (Homo sapiens, UniProt P19419).
T3 construct: FLAG-Elk-1; 1-428; expressed in transfected cells; host or cells: HEK-293
T3 sequence (P19419 1-428): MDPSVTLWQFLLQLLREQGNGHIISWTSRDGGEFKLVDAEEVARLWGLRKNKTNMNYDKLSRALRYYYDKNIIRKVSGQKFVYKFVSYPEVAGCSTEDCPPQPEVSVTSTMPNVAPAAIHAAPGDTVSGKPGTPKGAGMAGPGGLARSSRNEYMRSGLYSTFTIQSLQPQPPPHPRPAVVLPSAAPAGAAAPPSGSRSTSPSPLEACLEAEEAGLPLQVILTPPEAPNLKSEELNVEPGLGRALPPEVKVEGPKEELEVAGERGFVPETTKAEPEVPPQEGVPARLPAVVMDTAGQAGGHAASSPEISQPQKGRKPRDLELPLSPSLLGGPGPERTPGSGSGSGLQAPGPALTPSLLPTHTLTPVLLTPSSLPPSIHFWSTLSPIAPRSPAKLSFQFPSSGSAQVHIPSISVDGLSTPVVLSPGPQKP
In words: Co-immunoprecipitation of MZF-1-c-Myc fragments with FLAG-Elk-1 in transfected HEK-293 cells. Type of assay: binding. The conditions noted are these: FLAG-Elk-1 plus c-Myc fragment. Here is the method:
Red bands indicate the fragments that bound Elk-1 as present in the co-immunoprecipitation assay (lower panel). HEK-293 cells were transfected with 5 μg FLAG-Elk-1 and either empty vector or the indicated MZF-1-c-Myc fragment. The c-Myc-fused peptides were Immunoprecipitation by c-Myc monoclonal antibody and then Immunoblotting with the anti-FLAG antibodies. Lysates of HEK-293 cells transfected with the FLAG-Elk-1 only were also Immunoblotting as a control (Input).
MZF-1 contains an acidic domain (amino acids 60-72) with six aspartates or glutamates upstream of the zinc finger regions. To identify the specific residues through which MZF-1 interacts with Elk-1 we designed various protein fragments containing only the relevant interacting domains for co-immunoprecipitation assays (FIG. 14, top). The full-length MZF-1 and MZF-11-72, MZF-11-141, and MZF-160-72 fragments (all contain the acidic domain) all bound Elk-1 (FIG. 14, lower panel) but not MZF-11-60 or MZF-173-485.

Assay [4] has as its target T4, FLAG-Elk-1 (amino acids 1-428) (human, UniProt P19419 1-428).
T4 construct: range 1-428; Full-length Elk-1 expressed in HEK-293 cells; not shown: FLAG tag
T4 sequence (looked up): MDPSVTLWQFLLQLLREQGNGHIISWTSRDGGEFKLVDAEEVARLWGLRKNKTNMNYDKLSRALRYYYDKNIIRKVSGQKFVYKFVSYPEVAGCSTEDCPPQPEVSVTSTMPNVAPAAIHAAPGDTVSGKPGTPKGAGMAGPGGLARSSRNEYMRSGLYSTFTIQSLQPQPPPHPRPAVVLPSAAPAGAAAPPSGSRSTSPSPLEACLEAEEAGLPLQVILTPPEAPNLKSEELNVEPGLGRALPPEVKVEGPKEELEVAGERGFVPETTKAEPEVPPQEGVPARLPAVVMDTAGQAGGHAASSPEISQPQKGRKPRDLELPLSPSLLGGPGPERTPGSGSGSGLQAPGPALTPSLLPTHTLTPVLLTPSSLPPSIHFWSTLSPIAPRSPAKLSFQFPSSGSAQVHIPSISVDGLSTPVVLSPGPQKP
Put plainly: co-immunoprecipitation (anti-c-Myc IP, anti-FLAG blot), HEK-293 cells.

Assay [5] deals with T5, FLAG-MZF-1 (amino acids 1-485) (human, UniProt P28698-2 1-485).
T5 construct: range 1-485; Full-length MZF-1 expressed in HEK-293 cells; not shown: FLAG tag
In words: co-immunoprecipitation, HEK-293 cells.

[6] abbreviates: MDA-MB-231 cells before MZF-160-72 expression (parental).
The mark [7] stands for this setting: MZF-160-72-expressing MDA-MB-231 stable cells.
Where [8] appears, read: Hs578T cells before MZF-160-72 expression (parental).
[9] abbreviates: MZF-160-72-expressing Hs578T cells.

Consider `N.N.[Cl][Pt][Cl]` [cisplatin], for which the IC50 in the assay on MDA-MB-231 cells (setting [6]) stood at 23.7 µM; in the assay on MDA-MB-231 cells (setting [7]), 16.2 µM; with Hs578T cells (setting [8]), 28 µM; with Hs578T cells (setting [9]), 21.1 µM.
Consider “Elk-1145-157: Heparin-binding domain fragment, amino acids 145-157 of human Elk-1; expressed as c-Myc-fused fragment (LARSSRNEYMRSG; also: c-Myc tag fusion; listed as Homo sapiens)”, for which the “Elk-1 and MZF-1 DNA-binding activity (EMSA)” value in assay [1] is “decreased Elk-1 and MZF-1 DNA-binding activity in a dose-dependent manner”.
On to “YGRKKRRQRRRGGGDEDTPDQESRLDS (listed as Homo sapiens) [TAT-MZF-160-72, TAT-fused peptide MZF-1 normal fragment (60-72), three glycine linker residues]”, for which the “binding of MZF-1 to Elk-1 and vice versa (co-immunoprecipitation)” value with MZF-1/Elk-1 interaction was “reduced the binding of MZF-1 to Elk-1 and vice versa in a dose-dependent manner”. The cell migration entry in assay [2] was “reduced cell migration”. In [3], the “levels of EMT-related (PKCα, Slug and Vimentin) proteins” value is “noticeably increased”; the “levels of MET-related (E-cadherin) proteins” value is “decreased”.
Consider “YGRKKRRQRRRGGGLARSSRNEYMRSG (listed as Homo sapiens) [TAT-Elk-1145-157, TAT-fused peptide Elk-1 normal fragment (145-157), three glycine linker residues]”, for which, in the assay with MZF-1/Elk-1 interaction, the “binding of MZF-1 to Elk-1 and vice versa (co-immunoprecipitation)” value is “reduced the binding of MZF-1 to Elk-1 and vice versa in a dose-dependent manner”. Besides, the cell migration entry in [2] was “reduced cell migration”. In [3], the “levels of EMT-related (PKCα, Slug and Vimentin) proteins” value is “noticeably increased”; the “levels of MET-related (E-cadherin) proteins” value is “decreased”.
Consider acriflavine, for which the IC50 with MDA-MB-231 cells (setting [6]) worked out at 2.43 µM; with MDA-MB-231 cells (setting [7]), 1.49 µM; in the assay with Hs578T cells (setting [8]), 2.56 µM; with Hs578T cells (setting [9]), 1.33 µM.
“mutant MZF-160-72: MZF-1 60-72 fragment with aspartates D61, D67, D70 and D72 changed to uncharged alanine”: the “binding to Elk-1 (co-immunoprecipitation)” value with Elk-1 is on record as “substantially decreased”. Further, the “Elk-1 and MZF-1 DNA-binding activity (EMSA)” value in [1] is on record as “did not affect their binding activity”.

B1: MZF-1-c-Myc fragment, amino acids 1-60 (other, human, UniProt P28698-2 1-60, looked up)
chain: MNGPLVYAGFALQLGSISAGPGSVSPHLHVPWDLGMAGLSGQIQSPSREGGFAHALLLPS
notes: range 1-60; Expressed in HEK-293 cells; also called MZF-11-60; not shown: c-Myc(-His) tag from the pcDNA3.1/myc-His vector
Turning to B1, the binding result in [4] is on record as “no binding”.

B2: Elk-1-c-Myc fragment, amino acids 145-157 (Mutant) (peptide, UniProt P19419 145-157, looked up)
chain: LAASSANEYMASG
notes: not shown: c-Myc(-His) tag from the pcDNA3.1/myc-His vector
As to B2, in assay [5], the binding result is on record as “no binding”.
